Drawing on patent US10251889B2, “Substituted pyrazolo[1,5-a]pyrimidine compounds as Trk kinase inhibitors” (Array BioPharma, Inc., priority 2009, dated 2019), this text covers IC50 and inhibition for 7 compounds.

Common to all, as to type: biochemical
Assay [1] concerns the target TrkA (histidine-tagged recombinant human TrkA, cytoplasmic domain) (Homo sapiens (Human), UniProt P04629). Description: TrkA ELISA assay. As to conditions: Table 1, 500 μM ATP, read-out: TrkA Enzyme IC50. As for the experimental part:
An enzyme-linked immunosorbant assay (ELISA) was used to assess TrkA kinase activity in the presence of inhibitors. Immulon 4HBX 384-well microtiter plates (Thermo part #8755) were coated with a 0.025 mg/mL solution of poly (Glu, Ala, Tyr; 6:3:1; Sigma P3899). […] The assay buffer consisted of 25 mM MOPS pH 7.5, 0.005% (v/v) Triton X-100 and 5 mM MgCl2. The reaction mixture was removed from the plate by washing with PBS containing 0.1% (v/v) Tween 20. The phosphorylated reaction product was detected using 0.2 μg/mL of a phosphotyrosine specific monoclonal antibody (clone PY20) conjugated to horseradish peroxidase in conjunction with the TMB Peroxidase Substrate System (KPL). After the addition of 1M phosphoric acid, the chromogenic substrate color intensity was quantitated via absorbance at 450 nm.

Assay [2] deals with Jak2 (human Jak2 kinase domain, amino acids 808-1132) (Homo sapiens (Human), UniProt O60674). Description: Jak2 inhibition assay (Omnia kinase assay). Particulars: for IC50: Table 1, 500 μM ATP, >1000 nM when >50% inhibition not observed at 1000 nM, read-out: Jak2 Enzyme IC50; for inhibition at 1 µM: 1000 nM test compound.
Assay [3] has as its target Jak1 (GST-tagged human Jak1 kinase domain, amino acids 866-1154) (Homo sapiens (Human), UniProt P23458). Description: Jak1 inhibition assay (Omnia kinase assay). As to conditions: read-out: Jak1 (% inhibition at 1000 nM); Table 2; 1000 nM test compound. As for the experimental part:
(§1) The assays described in Examples C, D, E and F for the determination of JAK1, JAK2, JAK3 and Tyk2 kinase activity, respectively, utilized the Omnia® Kinase fluorescence peptide substrate-based technology (Invitrogen). […] The reactions were therefore read at excitation 360 nm and emission was measured at 485 nm every 50 seconds for 45 minutes using a PerkinElmer EnVision Multilabel Plate Reader.
(§2) The final buffer conditions for each of the JAK1, JAK2, JAK3 and Tyk2 assays were as follows: 25 mM HEPES, pH 7.4, 10 mM MgCl2, 0.01% Triton X-100 and 1 mM DTT.
(§3) Compounds were prepared at 50× the final concentration in DMSO by conducting 3-fold serial dilutions from a 500-μM or 1000-μM intermediate dilution to give a 10-point dosing curve having a high dose of 10 or 20 μM. Two-μL aliquots of these were transferred to a fresh plate for a ten-fold intermediate dilution with assay buffer. Five-μL aliquots of the diluted compounds were then transferred to 20-μL of assay mixtures described in Examples C, D, E and F for a final concentration of DMSO of 2%. A standard or reference compound was typically included on each assay plate to validate that plate. For each plate, percent of control (POC) values were calculated for each well according to the following equation:
(§4) where Xmax=Average Uninhibited Controls • Xmin=Average Background IC50's were estimated from the POC's using a standard 4-parameter logistic model:
(§5) where A=Minimum Y (Bottom Asymptote) • B=Maximum Y (Top Asymptote) • C=EC50 • D=Slope Factor • X=Compound Concentration (nM) • Y=POC
(§6) The IC50 is defined as the concentration of inhibitor at which the POC equals 50 for the fitted curve.
Compounds of Formula I were screened for their ability to inhibit Jak1 using the general enzyme inhibition assay method, in which the assay mixture contained 500 μM ATP, 8 μM Omnia® Y12 peptide (Catalog # IVGN KPZ3121C; Invitrogen Corporation, Carlsbad, Calif.) and 5 nM Jak1 in a total volume of 20 μL. […] (catalog # IVGN PV4774).

In assay [4] the target is Jak3 (GST-tagged human Jak3 kinase domain, amino acids 781-1124) (Homo sapiens (Human), UniProt P52333). Briefly: Jak3 inhibition assay (Omnia kinase assay). As to conditions: read-out: Jak3 (% inhibition at 1000 nM); Table 2; 1000 nM test compound. How it is done:
as §1, §2, §3, §4, §5, §6
Compounds of Formula I were screened for their ability to inhibit Jak3 using the general enzyme inhibition assay method, in which the assay mixture contained 500 μM ATP, 10 μM Omnia® Y7 peptide (Catalog # IVGN KNZ3071C, Invitrogen Corporation, Carlsbad, Calif.) and 1.5 nM Jak3 in a total volume of 20 μL. GST-tagged human Jak3 kinase domain comprising amino acids 781-1124 was purchased from Invitrogen Corporation, Carlsbad, Calif. (catalog # IVGN PV3855).

Assay [5] concerns the target Tyk2 (human Tyk2 kinase domain, amino acids 886 to 1187) (Homo sapiens (Human), UniProt P29597). Briefly: Tyk2 inhibition assay (Omnia kinase assay). As to conditions: read-out: Tyk2 (% inhibition at 1000 nM); Table 2; 1000 nM test compound. How it is done:
as §1, §2, §3, §4, §5, §6
Compounds of Formula I were screened for their ability to inhibit Tyk2 using the general enzyme inhibition assay method, in which the assay mixture contained 500 μM ATP, 8 μM Omnia® Y12 peptide (Catalog # IVGN KPZ3121C; Invitrogen Corporation, Carlsbad, Calif.) and 1 nM Tyk2 in a total volume of 20 μL. Human Tyk2 kinase domain, comprising amino acids 886 to 1187 with 10 additional histidine residues (histidine tag) on the carboxy terminus, was expressed and purified from baculovirus in-house at Array BioPharma Inc. (Boulder, Colo.). The histidine tag was cleaved after purification using standard conditions.

The mark [6] stands for this setting: read-out: Jak2 Enzyme (% inhibition at 1000 nM), Table 1.
[7] abbreviates: read-out: Jak2 (% inhibition at 1000 nM), Table 2.

Like-named read-outs stand apart in the source and are kept apart here.

Sequence of Jak3 (GST-tagged human Jak3 kinase domain, amino acids 781-1124) (P52333 781-1124): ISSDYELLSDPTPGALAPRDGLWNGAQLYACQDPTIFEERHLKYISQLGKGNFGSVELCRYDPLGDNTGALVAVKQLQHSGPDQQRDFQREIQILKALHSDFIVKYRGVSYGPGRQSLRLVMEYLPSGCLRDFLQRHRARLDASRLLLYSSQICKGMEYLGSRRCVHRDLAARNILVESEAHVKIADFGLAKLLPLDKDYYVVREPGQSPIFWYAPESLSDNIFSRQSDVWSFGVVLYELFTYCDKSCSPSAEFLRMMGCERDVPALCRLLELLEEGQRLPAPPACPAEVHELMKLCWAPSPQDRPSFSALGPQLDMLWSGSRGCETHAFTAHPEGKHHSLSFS
Sequence of TrkA (histidine-tagged recombinant human TrkA, cytoplasmic domain) (P04629 440-796): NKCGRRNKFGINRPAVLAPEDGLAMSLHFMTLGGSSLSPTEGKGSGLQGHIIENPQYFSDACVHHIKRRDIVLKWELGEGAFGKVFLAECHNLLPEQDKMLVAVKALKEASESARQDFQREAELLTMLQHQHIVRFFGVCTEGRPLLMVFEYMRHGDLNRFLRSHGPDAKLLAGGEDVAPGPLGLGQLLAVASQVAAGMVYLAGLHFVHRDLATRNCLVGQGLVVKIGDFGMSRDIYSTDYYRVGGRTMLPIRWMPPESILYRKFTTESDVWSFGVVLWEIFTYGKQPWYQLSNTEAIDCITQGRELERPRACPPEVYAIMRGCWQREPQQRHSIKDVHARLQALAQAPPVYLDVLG
Sequence of Tyk2 (human Tyk2 kinase domain, amino acids 886 to 1187) (P29597 886-1187): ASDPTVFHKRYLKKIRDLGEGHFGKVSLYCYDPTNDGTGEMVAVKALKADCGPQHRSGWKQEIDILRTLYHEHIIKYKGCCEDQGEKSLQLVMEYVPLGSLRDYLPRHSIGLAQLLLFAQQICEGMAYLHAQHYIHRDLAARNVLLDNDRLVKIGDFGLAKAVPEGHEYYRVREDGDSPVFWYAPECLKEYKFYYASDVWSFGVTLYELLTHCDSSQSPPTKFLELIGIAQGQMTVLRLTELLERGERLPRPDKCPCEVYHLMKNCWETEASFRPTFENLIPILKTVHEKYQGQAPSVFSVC
Sequence of Jak2 (human Jak2 kinase domain, amino acids 808-1132) (O60674 808-1132): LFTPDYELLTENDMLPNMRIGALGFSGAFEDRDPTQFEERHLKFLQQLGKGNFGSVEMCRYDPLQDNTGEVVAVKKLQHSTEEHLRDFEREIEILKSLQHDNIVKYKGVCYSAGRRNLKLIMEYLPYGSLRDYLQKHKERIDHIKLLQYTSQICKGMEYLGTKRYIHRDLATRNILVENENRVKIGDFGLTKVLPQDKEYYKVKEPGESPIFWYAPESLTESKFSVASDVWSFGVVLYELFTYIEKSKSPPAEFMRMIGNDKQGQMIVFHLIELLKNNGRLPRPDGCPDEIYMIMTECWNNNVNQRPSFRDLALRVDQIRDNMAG
Sequence of Jak1 (GST-tagged human Jak1 kinase domain, amino acids 866-1154) (P23458 866-1154): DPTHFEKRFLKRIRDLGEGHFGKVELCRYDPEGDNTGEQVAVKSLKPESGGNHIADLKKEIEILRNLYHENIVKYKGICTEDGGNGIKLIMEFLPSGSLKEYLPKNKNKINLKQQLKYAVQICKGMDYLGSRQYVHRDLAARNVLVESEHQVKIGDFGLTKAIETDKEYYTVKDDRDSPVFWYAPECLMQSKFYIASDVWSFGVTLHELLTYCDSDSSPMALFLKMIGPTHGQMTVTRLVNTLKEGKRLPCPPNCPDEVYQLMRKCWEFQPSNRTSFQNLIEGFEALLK

By IC50 is commonly meant the midpoint of a concentration-inhibition curve. One may read the inhibition as the relative decrease from the control value, in per cent. As to `CCc1ncc(F)cc1[C@H]1CCCN1c1ccn2ncc(C(=O)N[C@H]3CC[C@H](O)C3)c2n1` [Example 200, 5-((R)-2-(2-ethyl-5-fluoropyridin-3-yl)pyrrolidin-1-yl)-N-((1S,3S)-3-hydroxycyclopentyl)pyrazolo[1,5-a]pyrimidine-3-carboxamide], the IC50 in assay [1] is 12.7 nM; in assay [2] it was greater than 1000 nM. Besides, the inhibition at 1 µM in assay [2] (setting [6]) worked out at 12.5%.

On to `O=C(N[C@@H]1CCC[C@H]1O)c1cnn2ccc(N3CCC[C@@H]3c3cncc(F)c3)nc12` [Example 133, 5-((R)-2-(5-fluoropyridin-3-yl)pyrrolidin-1-yl)-N-((1R,2R)-2-hydroxycyclopentyl)pyrazolo[1,5-a]pyrimidine-3-carboxamide], for which the IC50 in assay [1] came out at 16 nM. The inhibition at 1 µM in assay [2] (setting [6]) was determined as 14.4%.

On to `C[C@@H](NC(=O)c1cnn2ccc(N3CCC[C@@H]3c3cncc(F)c3)nc12)C(F)(F)F` [Example 129, 5-((R)-2-(5-fluoropyridin-3-yl)pyrrolidin-1-yl)-N-((R)-1,1,1-trifluoropropan-2-yl)pyrazolo[1,5-a]pyrimidine-3-carboxamide], for which the values for the IC50 in assay [1] and in assay [2] were 8 nM and greater than 1000 nM, respectively. In addition, in assay [2] (setting [6]), the inhibition at 1 µM was 25.2%.

Turning to `C[C@H](NC(=O)c1cnn2ccc(N3CCC[C@@H]3c3cncc(F)c3)nc12)C1CC1` [Example 124, N-((S)-1-cyclopropylethyl)-5-((R)-2-(5-fluoropyridin-3-yl)pyrrolidin-1-yl)pyrazolo[1,5-a]pyrimidine-3-carboxamide], the inhibition at 1 µM in assay [2] (setting [7]) stood at 72.3%; in assay [2] (setting [6]), 53.3%; in assay [3] it was 36.4%; in assay [4], 7.2%; in assay [5], 16.2%.

As to `CC1(NC(=O)c2cnn3ccc(N4CCC[C@@H]4c4cncc(F)c4)nc23)CC1` [Example 91, (R)-5-(2-(5-fluoropyridin-3-yl)pyrrolidin-1-yl)-N-(1-methylcyclopropyl)pyrazolo[1,5-a]pyrimidine-3-carboxamide], the inhibition at 1 µM in assay [2] (setting [7]) is 42.1%; in assay [2] (setting [6]), 34.9%; in assay [3] it was 20.3%; in assay [4] it was 8.3%; in assay [5] it was 14.8%.

As for `NC(=O)c1cnn2ccc(N3CCC[C@@H]3c3cc(F)ccc3F)nc12` [Example 30, (R)-5-(2-(2,5-difluorophenyl)pyrrolidin-1-yl)pyrazolo[1,5-a]pyrimidine-3-carboxamide], the inhibition at 1 µM in assay [2] (setting [7]) is 30.4%; in assay [2] (setting [6]), 25.7%; in assay [3], 13.4%; in assay [4], 2.9%; in assay [5] it was 11.3%.

With `CNC(=O)c1cnn2ccc(N3CCC[C@@H]3c3cncc(F)c3)nc12` [Example 114, (R)-5-(2-(5-fluoropyridin-3-yl)pyrrolidin-1-yl)-N-methylpyrazolo[1,5-a]pyrimidine-3-carboxamide], the inhibition at 1 µM in assay [2] (setting [7]) stood at 15.6%; in assay [2] (setting [6]), 5%; in assay [3], 10.9%; in assay [4], 8.5%; in assay [5], 11.4%.
